Measurements reported in patent US4276890A, “Tobacco smoking inhibitor” (priority 1979, dated 1981).

Key:
smoking behavior = settings: cited from earlier work
rat brain cortex slices = settings: in vitro; cited from earlier work
[1] = system: hexobarbital-induced sleeping time; settings: 300 to 500 mg per kg; cited from earlier work
[2] = system: spontaneous motor activity; settings: mice, 75 mg/kg; cited from earlier work
[3] = system: tobacco consumption of habitual smokers; assay: General observations of treatment on tobacco consumption and subjective effects; assay type: in vivo, human (test subjects
From the text: In a preferred embodiment, finely divided ethyl maltol is distributed in a chewing gum base, which when chewed by the subject, results in a gradual release of ethyl maltol into the oral cavity. When administered in appropriate amounts over a period of several days, there results a gradual decrease in the number of cigarettes smoked and the length of time they are smoked. […] Reductions in the frequency and quantity of smoking have been observed in test subjects who were unaware that their smoking behavior was monitored. […] Subjectively, test subjects experience a reduced desired to smoke, tend to neglect the opportunities to light up a cigarette and tend to leave cigarettes unsmoked in the ashtray after a few puffs. The effect is sufficiently subtle that a smoker is sometimes unaware that their tobacco consumption rate was decreased until such point as the lowered consumption rate becomes obvious. For smokers sincerely desiring to reduce or eliminate their smoking, the effect of the treatment is most gratifying. However, for smokers who are not psychologically committed to giving up smoking, the effects may be alarming. It is of course, possible to override the effects of the treatment by conscious effort to smoke at the pre-treatment rate.
Smoking behavior is complex and includes cigarette, pipe and cigar smoking. Both from the standpoint of habituation and of health hazard, cigarette smoking is considered to be the most serious. It is contemplated that the treatment method described herein will be effective to inhibit all forms of smoking behavior and combinations thereof, involving the consumption of tobacco. For convenience, the ensuing discussion focuses on cigarette smoking, as exemplary of smoking behavior in general. Tobacco consumption is a function the number of cigarettes smoked and the proportion of each cigarette smoked. Reduction of consumption is measured by comparison with a smoker's pretreatment consumption rate. All data used herein are expressed as percent reduction, i.e., the differential between pretreatment and current smoking consumption rate divided by the pretreatment rate, times 100. All rates are calculated to take into account both the number of cigarettes smoked and the proportion of each smoked.
Duration of treatment may be as little as ten days, preferably 20 to 30 days. As might be expected with a complex behavior such as smoking, where psychological and social factors play a major role in addition to individual variations in nicotine susceptibility and responsiveness to gamma pyrone, the rate of smoking reduction during treatment is highly variable. Typically, a gradual reduction to about 50% to the pretreatment rate is observed over the first four to six days. Frequently, little or no reduction is observed for the first two days, although occasionally a dramatic reduction is observed almost immediately. In the ensuing seven to ten days, further reductions, typically 70 to 100%, are observed. Reduction below the 50% level in the first 3-5 days is sometimes accompanied by the physiological (but not psychological) symptoms of nicotine withdrawl, such as vertigo, alimentary distress, diuresis, scotoma and disorientation. Such symptoms have never been observed in non-smoking control subjects using the same gamma pyrone dosages. […] The entire course of treatment is therefore extended somewhat, preferably to about 20 to 30 days total. […]

mice = settings: cited from earlier work
[4] = system: convulsions produced by pentylenetetrazole or strychnine; settings: 300 to 500 mg per kg; cited from earlier work
[5] = system: rate of weight gain in animals; settings: animal feeds, up to 200 grams per ton; cited from earlier work
[6] = cited from earlier work
[7] = cited from earlier work; remark: listed apart in the source

In the case of `CN1[C@@H](CC(=O)c2ccccc2)CCC[C@H]1C[C@H](O)c1ccccc1` [lobeline], the “effectiveness versus placebo for smoking” value (smoking behavior; controlled double blind tests) is listed as “ineffective, i.e., no more effective than placebos”, the pharmacological action (smoking behavior; in vivo) is listed as “weak nicotine-like action” and the “withdrawal syndrome on discontinuation” value (smoking behavior; in vivo) is listed as “apparently discontinuable without a withdrawal syndrome”.
In the case of `Cc1occc(=O)c1O` [maltol, 3-hydroxy-2-methyl-4-pyrone], the “oxygen intake by rat brain cortex slices” value (rat brain cortex slices) is listed as “not affected”, the hexobarbital-induced sleeping time [1] is listed as “potentiating hexobarbital-induced sleeping time” and the “spontaneous motor activity, decrease” value [2] is listed as “approximately 50%”. The “tobacco consumption of habitual smokers” value ([3]; appropriate dosage levels and rates) was “significantly reduces the tobacco consumption of habitual smokers”, the “minimum effective dose relative to ethyl maltol” value ([3]; in vivo) was 4 to 6 times greater and the “acute LD50” value (mice) was 820 mg per kg. For the same compound, the “convulsions produced by pentylenetetrazole or strychnine” value [4] was “inhibited convulsions”, the “rate of weight gain” value [5] was “improves the rate of weight gain” and the consumption per day ([6]; as much as 1.5 grams per day) was “completely harmless”. The “safe average daily intake” value ([6]; per day) was 1 mg per kg, the absorption ([7]; after oral administration) was “rapidly absorbed” and the excretion ([7]; after oral administration) was “rapidly excreted”. For the same compound, the form of excretion ([7]; after oral administration) was “primarily as glucuronide and ethereal sulfate conjugates” and the metabolism and excretion ([7]; in vivo) was “rapidly metabolized and excreted”.
